This note sets out measurements from PMC10223470 (Molecules, 2023).

For data set [1], the system named is mice. The experiment in a line: Forced swim test (FST). The class given is in vivo. To be noted: 60 min before the test. The method, then: The experiments were carried out on 6 weeks old naive Swiss male mice (Experimental Medicine Center (OMD), Lublin, Poland), weighing 28–30 g. The cages with mice were located in air-conditioned rooms maintaining the ambient temperature within the range of 23–25 °C. The animals were provided with a natural 12 h day/night cycle, replicating the day and night mode. Each testing group was represented by 8–10 animals, depending on the research schedule. All experiments were conducted according to the National Institute of Health Guidelines for the Care and Use of Laboratory Animals (8th edition) and to the European Community Council Directive for the Care and Use of Laboratory Animals of 22 September 2010 (2010/63/EU) and were approved by the Local Ethical Committee (number of ethical approval: 147/2018). Compound 17 (25, 50, 75 mg/kg) was suspended in 1% Tween 80 in saline solution and was administered intraperitoneally (i.p.) 60 min before the test. […] Imipramine hydrochloride (30 mg/kg, Sigma-Aldrich was administered intraperitoneally (i.p.) 60 min before the test. […] Sigma-Aldrich, USA) was given subcutaneously (s.c.). Prior to administration, the agent was dissolved in saline and injected 30 min before the test. Control animals received an (i.p.) or (s.c.) injection of a respective vehicle. All compounds were injected in a manner generally accepted in experimental pharmacology, in an amount of 10 mL/kg body weight. Forced Swim Test was carried out according to the method of Porsolt et al.. It is a standard behavioral test, called the resignation test, which is used to determine the effectiveness of antidepressant drugs in laboratory rodents. Each mouse was placed individually for 6 min into a glass cylinder (height 25 cm, diameter 10 cm) with 15 cm of water at 23–25 °C. After the first 2 min of the test, the total duration of immobility (in seconds) was measured. An animal was judged to be immobile when it ceased struggling and remained floating motionless and making only movements allowing it to keep the head just above the surface of the water.

In data set [2] the target is T1, human D2S receptor (Homo sapiens, UniProt P14416).
T1 construct: expressed in transfected cells; host or cells: CHO-K1
The experiment in a line: Functional assays of cAMP signalling at D2 receptors (CHO-K1 cells, HTRF). The class given is cell-based. As for the experimental part:
The assessment of the activity of selected compounds at the D2 receptor was performed in cell-based functional assays of cAMP signaling, in the CHO-K1 cell line with stable expression of the cloned human D2S receptor, which was also employed for the radioligand binding assays. For D2 receptor antagonism, test compounds were dispensed into an empty 96-well plate (Isoplate-96 Black Frame White Well, PerkinElmer España SL, Madrid, Spain) with the use of the dispensing noncontact Echo 550 acoustic liquid handler (LABCYTE Inc., San Jose, CA, USA). Compounds were handled from frozen 10^−2 M stock solutions in 100% DMSO, from which serial 1000× solutions were prepared in 100% DMSO at the time of the assay, keeping vehicle concentration (0.1% DMSO) constant in the assay. Vials containing viable frozen cells were quickly thawed in a 37 °C water bath and cells were seeded into the assay plate in assay buffer (kit stimulation buffer containing 500 µM 3-isobutyl-1-methylxanthine (IBMX), which was directly added to the buffer as powder). […] After 10 min incubation at 37 °C, 10 µM forskolin was added to the corresponding wells, and incubation was continued for 5 min. After this time, cellular cAMP levels were quantified using the homogeneous time-resolved fluorescence (HTRF)-based cAMP Gs dynamic kit (Cisbio, Bioassays, Codolet, France) according to the manufacturer’s protocol. […] Basal cAMP levels were determined in control wells in the absence of compound, agonist, and forskolin.
(In TR-FRET formats the signal depends on donor and acceptor labels being close together.)

For data set [3], the system named is mice. The experiment in a line: Motor coordination, chimney test. To be noted: 25, 50 and 75 mg/kg i.p., 60 min before testing. The class given is in vivo. As for the experimental part:
The experiments were carried out on 6 weeks old naive Swiss male mice (Experimental Medicine Center (OMD), Lublin, Poland), weighing 28–30 g. The cages with mice were located in air-conditioned rooms maintaining the ambient temperature within the range of 23–25 °C. The animals were provided with a natural 12 h day/night cycle, replicating the day and night mode. Each testing group was represented by 8–10 animals, depending on the research schedule. All experiments were conducted according to the National Institute of Health Guidelines for the Care and Use of Laboratory Animals (8th edition) and to the European Community Council Directive for the Care and Use of Laboratory Animals of 22 September 2010 (2010/63/EU) and were approved by the Local Ethical Committee (number of ethical approval: 147/2018). Compound 17 (25, 50, 75 mg/kg) was suspended in 1% Tween 80 in saline solution and was administered intraperitoneally (i.p.) 60 min before the test. […] Imipramine hydrochloride (30 mg/kg, Sigma-Aldrich was administered intraperitoneally (i.p.) 60 min before the test. […] Sigma-Aldrich, USA) was given subcutaneously (s.c.). Prior to administration, the agent was dissolved in saline and injected 30 min before the test. […] Motor coordination has been assessed in mice using the chimney test and the rotarod test, according to the procedure we had used before. […]

Data set [4] deals with T2, human 5-HT7 receptor (Homo sapiens, UniProt P34969).
T2 construct: expressed in transfected cells; host or cells: HEK293
The experiment in a line: Competition radioligand binding at human 5-HT7 receptor ([3H]-SB269970). To be noted: mean ± SEM of 2 independent experiments, read-out: hu5-HT7 % inh. at 10 µM. As for the experimental part:
Competition radioligand binding assays were performed on membranes isolated from cell lines stably expressing the cloned human receptors, which were either in-house or commercially available. […] Assays (250 μL assay final volume) were carried out in 96-well polypropylene plates in duplicate. In short, the suspension of appropriate membrane protein was incubated in an assay buffer with the addition of the corresponding radioligand, in the presence or absence of a tested compound or reference compound. […] After the incubation, the content of the test plates was transferred to 96 well plates with glass fiber filter GF/B or GF/C, previously pretreated with polyethyleneimine (PEI), and rapidly filtered with the use of vacuum, followed by rapid washing with cold (4 °C) wash buffer. After that, the filter plates were dried at 60 °C for 1 h. Then, 30 μL of liquid scintillation cocktail (UniverSol-ES, MP Biomedicals, Solon, OH, USA) was added to each well of the filter plates, and the radioactivity was measured in a MicroBeta^2 microplate scintillation counter (PerkinElmer, Madrid, Spain).
Competition binding curves were fitted to a one-site competition binding model (Fit Ki) with the use of Prism 7 software (GraphPad, San Diego, CA, USA). logKi (log of the equilibrium dissociation constant (Ki)) values were obtained after constraining the concentration of radioligand employed in the assay and its dissociation constant (KD) as determined in saturation radioligand binding assays.

T1 sequence (P14416 1-414 isoform P14416-2): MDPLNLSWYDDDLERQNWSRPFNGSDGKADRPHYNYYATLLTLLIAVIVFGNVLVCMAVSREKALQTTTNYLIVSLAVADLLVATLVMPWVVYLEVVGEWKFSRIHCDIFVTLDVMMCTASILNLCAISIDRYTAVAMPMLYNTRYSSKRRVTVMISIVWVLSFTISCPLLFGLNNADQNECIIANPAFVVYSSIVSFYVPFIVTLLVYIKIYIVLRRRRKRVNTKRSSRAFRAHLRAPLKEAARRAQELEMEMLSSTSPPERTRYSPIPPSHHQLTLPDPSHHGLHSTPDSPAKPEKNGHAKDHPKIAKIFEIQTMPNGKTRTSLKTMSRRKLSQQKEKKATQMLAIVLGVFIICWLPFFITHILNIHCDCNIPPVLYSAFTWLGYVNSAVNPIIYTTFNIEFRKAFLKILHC
T2 sequence (P34969 whole entry): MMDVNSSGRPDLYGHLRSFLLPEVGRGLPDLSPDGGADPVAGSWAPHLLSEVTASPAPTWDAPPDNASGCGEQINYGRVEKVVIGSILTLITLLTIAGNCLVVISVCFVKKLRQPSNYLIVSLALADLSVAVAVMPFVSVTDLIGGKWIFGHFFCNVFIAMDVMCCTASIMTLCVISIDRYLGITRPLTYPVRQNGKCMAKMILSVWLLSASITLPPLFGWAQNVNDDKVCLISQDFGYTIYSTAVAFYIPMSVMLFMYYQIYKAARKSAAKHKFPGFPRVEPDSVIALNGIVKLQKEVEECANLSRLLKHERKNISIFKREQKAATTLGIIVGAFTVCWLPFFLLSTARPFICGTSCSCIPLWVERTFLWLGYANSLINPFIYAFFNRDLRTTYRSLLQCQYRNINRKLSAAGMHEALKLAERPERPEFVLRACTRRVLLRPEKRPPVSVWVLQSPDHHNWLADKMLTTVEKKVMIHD

For the compound `O=C(CCN1C(=O)CSc2ccccc21)Nc1ccc(Cl)cc1` [Compound 17, N-(4-Chlorophenyl)-3-(3-oxo-2,3-dihydro-4H-benzo[b][1,4]thiazin-4-yl)propanamide], the “effect on immobility time” value in data set [1] (25 mg/kg i.p., p > 0.05) is recorded as “no statistically significant effect”. Further, the “effect on total time of immobility vs control group” value is listed as “significantly reduced” in data set [1] (50 mg/kg i.p., p < 0.001) and “significantly reduced” in data set [1] (75 mg/kg i.p., p < 0.01). For the same compound, the Kb in data set [2] (antagonism of 1 µM dopamine response, forskolin-stimulated cAMP, three independent experiments, read-out: D2 Signalling (cAMP) pKb (Mean ± SEM) (converted)) was 26.9 nM. Besides, the “efficacy at D2 receptor (mode of action)” value in data set [2] (cAMP signaling, CHO-K1 cells) is given as “antagonism”. In data set [3], the “effect on behavior in the chimney test” value is on record as “did not change the behavior”. Moreover, the “time to leave the chimney” value in data set [3] is no more than 30 s. In addition, the inhibition at 10 µM in data set [4] turned out to be 5 ± 11%.
